Reference: patent publication US11572369B2, “Bicyclic pyridine compositions and methods of using the same for cancer therapy” (UNIVERSITY OF SOUTH CAROLINA, priority 2019, dated 2023)

Tests used:
Assay in all cases: KINOMEscan
Assay type in all cases: binding
Settings in all cases: 2000 nM
GSK3B = target: T1, GSK3B (Homo sapiens, UniProt P49841)
T1 construct: DNA label (for qPCR read-out); purchased DiscoveRx (KINOMEscan scanMAX panel, contract assay)

PIK3CB = target: T2, PIK3CB (Homo sapiens, UniProt P42338)
T2 construct: DNA label; purchased DiscoveRx (KINOMEscan scanMAX panel)

CDK4 = target: T3, CDK4 (Homo sapiens, UniProt P11802)
T3 construct: purchased DiscoverX (KINOMEscan service)

MST4 = target: T4, MST4 (Homo sapiens, UniProt Q9P289)
T4 construct: DNA label (for qPCR read-out); purchased KINOMEscan scanMAX panel (DiscoveRx)

CLK2 = target: T5, CLK2 (Homo sapiens, UniProt P49760)
T5 construct: DNA label (for qPCR read-out); purchased DiscoveRx (KINOMEscan scanMAX service)

PIP5K1C = target: T6, PIP5K1C (Homo sapiens, UniProt O60331)
T6 construct: DNA label (qPCR read-out); purchased KINOMEscan (DiscoveRx) panel

LIMK2 = target: T7, LIMK2 (Homo sapiens, UniProt P53671)
T7 construct: purchased KINOMEscan (DiscoveRx) panel service

AMPK-alpha2 = target: T8, AMPK-alpha2 (Homo sapiens, UniProt P54646)
T8 construct: DNA label (qPCR read-out); purchased KINOMEscan scanMAX panel (DiscoveRx)
T8 sequence (P54646 whole entry): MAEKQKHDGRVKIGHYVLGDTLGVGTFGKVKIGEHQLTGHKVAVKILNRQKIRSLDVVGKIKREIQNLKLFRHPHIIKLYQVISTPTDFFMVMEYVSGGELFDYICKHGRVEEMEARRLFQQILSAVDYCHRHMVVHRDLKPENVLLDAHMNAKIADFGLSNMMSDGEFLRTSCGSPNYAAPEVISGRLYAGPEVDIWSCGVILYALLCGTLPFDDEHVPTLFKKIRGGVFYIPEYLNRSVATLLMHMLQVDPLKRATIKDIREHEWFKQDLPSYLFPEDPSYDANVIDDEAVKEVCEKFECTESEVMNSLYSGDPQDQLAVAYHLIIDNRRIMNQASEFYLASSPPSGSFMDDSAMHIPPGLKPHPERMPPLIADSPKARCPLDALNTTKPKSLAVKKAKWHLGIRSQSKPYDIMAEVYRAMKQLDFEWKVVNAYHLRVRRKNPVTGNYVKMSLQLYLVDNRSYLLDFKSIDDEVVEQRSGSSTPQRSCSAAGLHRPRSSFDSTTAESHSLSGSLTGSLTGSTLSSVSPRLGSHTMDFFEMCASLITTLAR

NEK2 = target: T9, NEK2 (Homo sapiens, UniProt P51955)
T9 construct: DNA label (qPCR read-out); purchased KINOMEscan (ScanMAX panel service)

[1] = target: T10, RSK2(Kin.Dom.1-N-terminal) (Homo sapiens, UniProt P51812)
T10 construct: RSK2(Kin.Dom.1); purchased DiscoveRx (KINOMEscan scanMAX panel)

p38-alpha = target: T11, p38-alpha (Homo sapiens, UniProt Q16539)
T11 construct: purchased DiscoverX (KINOMEscan service)

DYRK2 = target: T12, DYRK2 (Homo sapiens, UniProt Q92630)
T12 construct: DNA label (qPCR read-out); purchased KINOMEscan (DiscoveRx) panel

MAPKAPK5 = MAPKAPK5 (Homo sapiens, UniProt Q8IW41)
MAPKAPK5, sequence (Q8IW41 whole entry): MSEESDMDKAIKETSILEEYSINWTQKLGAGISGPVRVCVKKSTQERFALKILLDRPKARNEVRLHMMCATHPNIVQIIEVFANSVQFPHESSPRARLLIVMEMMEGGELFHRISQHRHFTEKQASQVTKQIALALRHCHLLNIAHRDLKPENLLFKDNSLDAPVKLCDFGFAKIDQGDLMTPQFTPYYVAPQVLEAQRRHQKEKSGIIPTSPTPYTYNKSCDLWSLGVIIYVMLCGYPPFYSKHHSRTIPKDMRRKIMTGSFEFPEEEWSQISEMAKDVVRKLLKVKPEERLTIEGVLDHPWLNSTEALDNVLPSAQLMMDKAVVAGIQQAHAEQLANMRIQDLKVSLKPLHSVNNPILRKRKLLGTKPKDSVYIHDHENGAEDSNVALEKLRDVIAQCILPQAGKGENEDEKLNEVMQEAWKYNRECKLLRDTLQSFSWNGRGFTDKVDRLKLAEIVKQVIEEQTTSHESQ

[2] = target: T13, RPS6KA5(Kin.Dom.2-C-terminal) (Homo sapiens, UniProt O75582)
T13 construct: RPS6KA5(Kin.Dom.2); purchased DiscoveRx (KINOMEscan scanMAX panel)
T13 sequence (O75582 426-687 limits assumed): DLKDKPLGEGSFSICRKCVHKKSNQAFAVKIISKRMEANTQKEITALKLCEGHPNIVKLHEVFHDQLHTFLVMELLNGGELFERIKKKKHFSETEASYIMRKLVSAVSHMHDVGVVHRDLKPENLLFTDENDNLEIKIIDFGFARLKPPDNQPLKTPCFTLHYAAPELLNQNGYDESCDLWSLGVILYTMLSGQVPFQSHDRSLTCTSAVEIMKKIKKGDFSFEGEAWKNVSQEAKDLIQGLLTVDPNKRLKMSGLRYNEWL

RET(V804L) = target: T14, RET(V804L) (Homo sapiens, UniProt P07949, V804L)
T14 construct: purchased DiscoveRx (KINOMEscan scanMAX panel)

EIF2AK1 = target: T15, EIF2AK1 (Homo sapiens, UniProt Q9BQI3)
T15 construct: purchased DiscoveRx (KINOMEscan scanMAX panel)

WNK1 = target: T16, WNK1 (Homo sapiens, UniProt Q9H4A3)
T16 construct: purchased KINOMEscan (DiscoveRx) panel service

MLCK = target: T17, MLCK (Homo sapiens, UniProt Q32MK0)
T17 construct: DNA label (qPCR read-out); purchased KINOMEscan scanMAX panel (DiscoveRx)

AKT1 = target: T18, AKT1 (Homo sapiens, UniProt P31749)
T18 construct: purchased DiscoveRx (KINOMEscan scanMAX panel, service)

MAPKAPK2 = MAPKAPK2 (Homo sapiens, UniProt P49137)
MAPKAPK2, sequence (P49137 whole entry): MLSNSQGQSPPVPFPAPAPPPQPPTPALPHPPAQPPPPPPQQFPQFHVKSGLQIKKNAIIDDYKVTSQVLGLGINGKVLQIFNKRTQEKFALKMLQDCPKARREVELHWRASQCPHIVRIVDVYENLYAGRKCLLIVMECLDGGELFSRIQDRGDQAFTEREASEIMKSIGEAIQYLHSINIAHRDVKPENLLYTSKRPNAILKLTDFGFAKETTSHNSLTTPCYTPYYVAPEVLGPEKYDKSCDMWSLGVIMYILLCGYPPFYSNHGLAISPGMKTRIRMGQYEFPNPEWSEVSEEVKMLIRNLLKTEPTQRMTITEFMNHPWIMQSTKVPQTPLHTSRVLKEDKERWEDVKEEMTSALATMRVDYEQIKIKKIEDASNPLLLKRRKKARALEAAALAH

FGFR1 = target: T19, FGFR1 (Homo sapiens, UniProt P11362)
T19 construct: purchased DiscoveRx (KINOMEscan scanMAX panel)
T19 sequence (P11362 22-822): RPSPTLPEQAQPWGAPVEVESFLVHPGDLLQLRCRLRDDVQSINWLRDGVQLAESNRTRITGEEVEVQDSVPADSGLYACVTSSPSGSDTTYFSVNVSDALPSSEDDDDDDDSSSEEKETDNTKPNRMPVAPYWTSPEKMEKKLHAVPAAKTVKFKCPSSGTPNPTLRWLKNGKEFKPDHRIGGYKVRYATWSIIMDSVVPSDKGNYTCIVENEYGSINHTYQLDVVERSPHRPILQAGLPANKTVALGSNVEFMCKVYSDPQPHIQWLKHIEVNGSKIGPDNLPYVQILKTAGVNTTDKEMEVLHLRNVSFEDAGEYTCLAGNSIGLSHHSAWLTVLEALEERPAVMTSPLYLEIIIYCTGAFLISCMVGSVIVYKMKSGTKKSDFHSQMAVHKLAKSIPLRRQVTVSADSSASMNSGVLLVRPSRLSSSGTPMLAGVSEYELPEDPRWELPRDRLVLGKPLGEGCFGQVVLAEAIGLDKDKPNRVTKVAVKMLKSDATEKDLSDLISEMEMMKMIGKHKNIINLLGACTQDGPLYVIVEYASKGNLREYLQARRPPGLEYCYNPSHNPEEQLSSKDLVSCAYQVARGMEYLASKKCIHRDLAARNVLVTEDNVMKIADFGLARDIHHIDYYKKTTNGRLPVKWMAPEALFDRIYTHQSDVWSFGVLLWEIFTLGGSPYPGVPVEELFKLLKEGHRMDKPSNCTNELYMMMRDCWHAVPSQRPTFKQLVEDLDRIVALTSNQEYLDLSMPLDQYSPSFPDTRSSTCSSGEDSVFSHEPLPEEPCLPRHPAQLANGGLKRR

FLT3(R834Q) = target: T20, FLT3(R834Q) (Homo sapiens, UniProt P36888, R834Q)
T20 construct: purchased KINOMEscan (DiscoveRx)

JNK2 = target: T21, JNK2 (Homo sapiens, UniProt P45984)
T21 construct: DNA label (for qPCR read-out); purchased DiscoveRx (KINOMEscan scanMAX panel)

PKN2 = target: T22, PKN2 (Homo sapiens, UniProt Q16513)
T22 construct: DNA label (qPCR read-out); purchased KINOMEscan (DiscoveRx) panel
T22 sequence (Q16513 whole entry): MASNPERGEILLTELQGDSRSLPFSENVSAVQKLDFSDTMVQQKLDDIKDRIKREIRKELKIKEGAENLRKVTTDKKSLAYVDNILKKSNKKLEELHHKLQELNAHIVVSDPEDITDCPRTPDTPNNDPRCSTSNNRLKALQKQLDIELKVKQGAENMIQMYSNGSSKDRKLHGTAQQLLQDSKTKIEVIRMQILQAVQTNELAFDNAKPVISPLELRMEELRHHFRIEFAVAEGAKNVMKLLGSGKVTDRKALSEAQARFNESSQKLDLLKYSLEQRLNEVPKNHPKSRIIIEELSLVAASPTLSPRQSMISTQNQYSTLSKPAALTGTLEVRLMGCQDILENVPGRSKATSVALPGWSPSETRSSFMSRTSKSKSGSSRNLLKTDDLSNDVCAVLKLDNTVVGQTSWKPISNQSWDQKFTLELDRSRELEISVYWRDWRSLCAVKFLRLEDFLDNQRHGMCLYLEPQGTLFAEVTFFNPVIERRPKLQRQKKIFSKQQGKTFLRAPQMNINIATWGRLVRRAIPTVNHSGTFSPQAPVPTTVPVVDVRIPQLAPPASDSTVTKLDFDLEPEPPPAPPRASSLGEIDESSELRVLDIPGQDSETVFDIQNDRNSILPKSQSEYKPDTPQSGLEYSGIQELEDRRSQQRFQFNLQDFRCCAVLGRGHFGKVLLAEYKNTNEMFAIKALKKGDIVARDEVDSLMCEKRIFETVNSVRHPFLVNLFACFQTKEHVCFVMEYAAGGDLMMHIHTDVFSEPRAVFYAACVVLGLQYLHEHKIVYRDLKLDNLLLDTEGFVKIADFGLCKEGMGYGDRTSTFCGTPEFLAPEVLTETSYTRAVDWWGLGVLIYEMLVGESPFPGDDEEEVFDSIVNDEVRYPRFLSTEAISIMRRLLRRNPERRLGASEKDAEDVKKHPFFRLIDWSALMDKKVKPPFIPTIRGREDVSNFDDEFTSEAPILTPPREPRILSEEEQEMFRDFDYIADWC

[3] = target: ABL1(F317L)-phosphorylated (Homo sapiens, UniProt P00519, F317L)
ABL1(F317L)-phosphorylated, sequence (P00519 whole entry F317L): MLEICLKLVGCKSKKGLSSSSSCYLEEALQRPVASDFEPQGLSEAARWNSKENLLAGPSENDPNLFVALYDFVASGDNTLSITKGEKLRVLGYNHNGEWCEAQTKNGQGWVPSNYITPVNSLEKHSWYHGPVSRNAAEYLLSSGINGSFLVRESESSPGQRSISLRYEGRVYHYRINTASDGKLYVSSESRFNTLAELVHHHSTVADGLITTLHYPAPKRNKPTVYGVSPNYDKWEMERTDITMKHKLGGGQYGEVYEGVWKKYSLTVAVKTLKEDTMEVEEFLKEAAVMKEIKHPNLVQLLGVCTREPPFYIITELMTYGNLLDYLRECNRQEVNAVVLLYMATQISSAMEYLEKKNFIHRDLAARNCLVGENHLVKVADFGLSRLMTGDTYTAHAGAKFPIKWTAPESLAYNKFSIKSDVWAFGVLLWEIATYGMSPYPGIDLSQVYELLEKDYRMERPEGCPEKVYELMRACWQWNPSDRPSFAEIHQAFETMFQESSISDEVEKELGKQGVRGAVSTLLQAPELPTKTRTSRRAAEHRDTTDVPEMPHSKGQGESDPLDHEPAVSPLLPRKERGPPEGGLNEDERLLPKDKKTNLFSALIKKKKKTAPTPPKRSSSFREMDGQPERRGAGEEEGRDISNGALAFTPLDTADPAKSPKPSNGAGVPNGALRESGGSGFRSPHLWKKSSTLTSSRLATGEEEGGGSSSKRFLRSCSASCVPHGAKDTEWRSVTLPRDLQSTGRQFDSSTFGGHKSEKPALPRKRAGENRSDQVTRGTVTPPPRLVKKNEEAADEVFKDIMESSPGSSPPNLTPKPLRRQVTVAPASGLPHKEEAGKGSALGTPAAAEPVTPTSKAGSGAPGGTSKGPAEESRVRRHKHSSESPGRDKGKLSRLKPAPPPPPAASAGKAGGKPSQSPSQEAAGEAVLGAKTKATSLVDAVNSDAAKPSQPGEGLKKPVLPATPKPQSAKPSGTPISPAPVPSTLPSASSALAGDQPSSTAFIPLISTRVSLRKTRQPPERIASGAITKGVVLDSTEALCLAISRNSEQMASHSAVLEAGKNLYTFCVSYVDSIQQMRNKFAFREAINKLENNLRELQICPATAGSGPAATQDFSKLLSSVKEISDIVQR

PDPK1 = target: T23, PDPK1 (Homo sapiens, UniProt O15530)
T23 construct: DNA label (for qPCR read-out); purchased DiscoveRx (KINOMEscan scanMAX service)

CDK7 = target: T24, CDK7 (Homo sapiens, UniProt P50613)
T24 construct: purchased DiscoverX (KINOMEscan service)
T24 sequence (P50613 whole entry): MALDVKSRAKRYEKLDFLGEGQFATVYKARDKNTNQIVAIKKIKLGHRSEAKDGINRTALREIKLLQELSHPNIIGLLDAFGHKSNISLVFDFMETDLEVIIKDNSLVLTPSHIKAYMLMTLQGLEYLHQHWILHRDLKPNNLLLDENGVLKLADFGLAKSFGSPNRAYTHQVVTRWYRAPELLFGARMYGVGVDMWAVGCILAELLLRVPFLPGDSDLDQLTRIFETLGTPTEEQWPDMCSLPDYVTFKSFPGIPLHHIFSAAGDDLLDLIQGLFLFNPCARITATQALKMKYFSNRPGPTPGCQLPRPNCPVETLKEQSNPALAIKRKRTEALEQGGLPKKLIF

STK36 = target: T25, STK36 (Homo sapiens, UniProt Q9NRP7)
T25 construct: DNA label (for qPCR read-out); purchased DiscoveRx (KINOMEscan scanMAX panel, contract assay)

CDKL3 = target: T26, CDKL3 (Homo sapiens, UniProt Q8IVW4)
T26 construct: DNA label (for qPCR read-out); purchased DiscoveRx (KINOMEscan scanMAX service)

[4] = target: ABL1(F317I)-phosphorylated (Homo sapiens, UniProt P00519, F317I)
ABL1(F317I)-phosphorylated, sequence (P00519 whole entry F317I): as the sequence (P00519 whole entry F317L) above, with L317I counted along it

[5] = target: T27, RPS6KA4(Kin.Dom.1-N-terminal) (Homo sapiens, UniProt O75676)
T27 construct: Kin.Dom.1; DNA label (qPCR read-out); purchased DiscoveRx (KINOMEscan ScanMAX panel)

FLT3(D835Y) = target: T28, FLT3(D835Y) (Homo sapiens, UniProt P36888, D835Y)
T28 construct: purchased DiscoveRx (KINOMEscan scanMAX panel)

RIOK2 = target: T29, RIOK2 (Homo sapiens, UniProt Q9BVS4)
T29 construct: DNA label (qPCR read-out); purchased DiscoverX (assay service)

| Structure (SMILES) | % Ctrl (GSK3B) | % Ctrl (PIK3CB) | % Ctrl (CDK4) | % Ctrl (MST4) | % Ctrl (CLK2) | % Ctrl (PIP5K1C) | % Ctrl (LIMK2) | % Ctrl (AMPK-alpha2) | % Ctrl (NEK2) | % Ctrl [1] | % Ctrl (p38-alpha) | % Ctrl (DYRK2) | % Ctrl (MAPKAPK5) | % Ctrl [2] | % Ctrl (RET(V804L)) | % Ctrl (EIF2AK1) | % Ctrl (WNK1) | % Ctrl (MLCK) | % Ctrl (AKT1) | % Ctrl (MAPKAPK2) | further results |
| --- | --- | --- | --- | --- | --- | --- | --- | --- | --- | --- | --- | --- | --- | --- | --- | --- | --- | --- | --- | --- | --- |
| [2H]C([2H])([2H])N(C(=O)c1ccc(N2CCCN(c3ccnc4sc(C(N)=O)c(N)c34)CC2)cc1)C([2H])([2H])[2H] [15u_D6, 3-amino-4-(4-(4-(bis(methyl-d3)carbamoyl)phenyl)-1,4-diazepan-1-yl)thieno[2,3-b]pyridine-2-carboxamide] | 77 % Ctrl | 95 % Ctrl | 71 % Ctrl | 89 % Ctrl | 83 % Ctrl | 25 % Ctrl | 98 % Ctrl | 95 % Ctrl | 95 % Ctrl | 64 % Ctrl | 99 % Ctrl | 97 % Ctrl | 64 % Ctrl | 100 % Ctrl | 100 % Ctrl | 78 % Ctrl | 93 % Ctrl | 100 % Ctrl | 100 % Ctrl | 99 % Ctrl | % Ctrl (FGFR1): 92 % Ctrl; % Ctrl (FLT3(R834Q)): 68 % Ctrl; % Ctrl (JNK2): 54 % Ctrl; % Ctrl (PKN2): 100 % Ctrl; % Ctrl [3]: 82 % Ctrl; % Ctrl (PDPK1): 96 % Ctrl; % Ctrl (CDK7): 78 % Ctrl; % Ctrl (STK36): 100 % Ctrl; % Ctrl (CDKL3): 100 % Ctrl; % Ctrl [4]: 84 % Ctrl; % Ctrl [5]: 100 % Ctrl; % Ctrl (FLT3(D835Y)): 100 % Ctrl; % Ctrl (RIOK2): 3.9 % Ctrl |
| CN(C)C(=O)c1ccc(N2CCCN(c3ccnc4sc(C(N)=O)c(N)c34)CC2)cc1 [15u, 3-amino-4-(4-(4-(dimethylcarbamoyl)phenyl)-1,4-diazepan-1-yl)thieno[2,3-b]pyridine-2-carboxamide] | 79 % Ctrl | 100 % Ctrl | 73 % Ctrl | 95 % Ctrl | 75 % Ctrl | 64 % Ctrl | 91 % Ctrl | 80 % Ctrl | 95 % Ctrl | 90 % Ctrl | 93 % Ctrl | 100 % Ctrl | 100 % Ctrl | 95 % Ctrl | 100 % Ctrl | 93 % Ctrl | 100 % Ctrl | 96 % Ctrl | 100 % Ctrl | 91 % Ctrl | % Ctrl (FGFR1): 98 % Ctrl; % Ctrl (FLT3(R834Q)): 100 % Ctrl; % Ctrl (JNK2): 99 % Ctrl; % Ctrl (PKN2): 100 % Ctrl; % Ctrl [3]: 97 % Ctrl; % Ctrl (PDPK1): 100 % Ctrl; % Ctrl (CDK7): 100 % Ctrl; % Ctrl (STK36): 100 % Ctrl; % Ctrl (CDKL3): 100 % Ctrl; % Ctrl [4]: 88 % Ctrl; % Ctrl [5]: 96 % Ctrl; % Ctrl (FLT3(D835Y)): 46 % Ctrl; % Ctrl (RIOK2): 35 % Ctrl |
